The target of assay [1] is T1, Neuronal acetylcholine receptor subunit alpha-7 (Homo sapiens, UniProt P36544). Description: Antagonist activity at human alpha7 nAChR expressed in rat GH3 cells assessed as (+/-)-epibatidine-induced Ca2+ influx. Format: cell-based.
Assay [2] concerns the target T2, Neuronal acetylcholine receptor; alpha4/beta2 (Homo sapiens, UniProt P17787+P43681). Description: Antagonist activity at human alpha4beta2 nAChR expressed in HEK293 cells assessed as (+/-)-epibatidine-induced Ca2+ influx. The format is cell-based.
For the next assay, the species on record is Homo sapiens. Description: Selectivity ratio of IC50 for human alpha4beta2 nAChR to IC50 for human alpha7 nAChR.
The target in assay [3] is T2, Neuronal acetylcholine receptor; alpha4/beta2. Description: Displacement of [3H]cytisine from human alpha4beta2 nAChR. Format: protein-complex assay.
Assay [4] has as its target T1, Neuronal acetylcholine receptor subunit alpha-7. Description: Displacement of [3H]MLA from human alpha7 nAChR.
For assay [5], the target named is T2, Neuronal acetylcholine receptor; alpha4/beta2. Description: Displacement of [3H]imipramine from human alpha4beta2 nAChR. Format: protein-complex assay. In general terms: Displacement assays read how much labelled ligand stays bound in the presence of the test substance.
Assay [6] addresses T1, Neuronal acetylcholine receptor subunit alpha-7. Description: Displacement of [3H]imipramine from human alpha7 nAChR.

Molecules are shown by their SMILES. pIC50, pKi: −log10 of the molar value.

T1 sequence (P36544 whole entry): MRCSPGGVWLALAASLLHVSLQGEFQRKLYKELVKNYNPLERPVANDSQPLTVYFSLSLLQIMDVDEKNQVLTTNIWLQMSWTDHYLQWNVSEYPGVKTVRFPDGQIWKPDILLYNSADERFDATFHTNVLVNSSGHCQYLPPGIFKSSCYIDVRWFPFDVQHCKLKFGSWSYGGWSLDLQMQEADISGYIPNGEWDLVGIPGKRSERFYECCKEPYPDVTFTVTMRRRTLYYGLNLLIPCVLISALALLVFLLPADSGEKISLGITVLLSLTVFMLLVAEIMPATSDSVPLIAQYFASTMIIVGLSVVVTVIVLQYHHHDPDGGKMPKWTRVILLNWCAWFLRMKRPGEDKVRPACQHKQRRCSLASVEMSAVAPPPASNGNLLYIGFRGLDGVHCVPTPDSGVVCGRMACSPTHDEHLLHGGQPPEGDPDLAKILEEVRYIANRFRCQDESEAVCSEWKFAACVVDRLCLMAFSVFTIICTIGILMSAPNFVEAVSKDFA
T2 sequence (P17787 whole entry): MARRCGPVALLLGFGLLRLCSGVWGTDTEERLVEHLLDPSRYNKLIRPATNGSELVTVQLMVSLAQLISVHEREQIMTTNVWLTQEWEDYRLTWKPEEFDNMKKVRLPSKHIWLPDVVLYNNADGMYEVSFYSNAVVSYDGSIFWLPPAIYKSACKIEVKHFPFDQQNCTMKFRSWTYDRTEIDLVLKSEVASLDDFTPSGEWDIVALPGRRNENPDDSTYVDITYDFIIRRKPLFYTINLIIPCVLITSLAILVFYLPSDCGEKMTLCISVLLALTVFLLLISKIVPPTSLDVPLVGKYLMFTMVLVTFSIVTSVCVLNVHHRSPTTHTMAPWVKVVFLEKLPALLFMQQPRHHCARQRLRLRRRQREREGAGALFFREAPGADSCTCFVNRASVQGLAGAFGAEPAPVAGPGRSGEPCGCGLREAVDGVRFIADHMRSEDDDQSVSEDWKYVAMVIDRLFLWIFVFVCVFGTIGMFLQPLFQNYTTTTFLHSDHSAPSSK
T2 sequence (P43681 whole entry): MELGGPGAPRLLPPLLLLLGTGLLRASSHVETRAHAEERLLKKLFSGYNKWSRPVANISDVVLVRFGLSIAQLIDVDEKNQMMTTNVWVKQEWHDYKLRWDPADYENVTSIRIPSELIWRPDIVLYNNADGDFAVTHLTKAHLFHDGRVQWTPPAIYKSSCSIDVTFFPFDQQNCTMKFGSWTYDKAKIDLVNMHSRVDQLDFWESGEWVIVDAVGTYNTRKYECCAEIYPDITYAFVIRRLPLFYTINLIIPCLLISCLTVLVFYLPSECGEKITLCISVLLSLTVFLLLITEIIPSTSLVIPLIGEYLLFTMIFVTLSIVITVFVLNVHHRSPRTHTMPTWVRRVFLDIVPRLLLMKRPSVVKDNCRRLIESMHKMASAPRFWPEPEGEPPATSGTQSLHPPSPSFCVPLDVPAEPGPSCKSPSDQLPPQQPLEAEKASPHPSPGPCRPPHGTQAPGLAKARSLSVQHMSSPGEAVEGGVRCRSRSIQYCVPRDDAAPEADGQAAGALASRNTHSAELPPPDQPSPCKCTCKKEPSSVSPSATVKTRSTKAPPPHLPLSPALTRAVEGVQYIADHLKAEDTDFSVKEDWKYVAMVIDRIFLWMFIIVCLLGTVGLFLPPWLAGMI

One may read the pIC50 as −log10 of the IC50, conventionally taken in molar units. Consider `C[N+](C)(C)Cc1cn(Cc2ccccc2)c2ccccc12`, for which the pIC50 in assay [1] was 5.64; in assay [2] it was 5.38. Also, the Ratio IC50 in the assay filed under Homo sapiens turned out to be 1.9.

A word on the pKi: it is the Ki on a negative log10 scale, so that one unit is a factor of ten. A high value points to a low Ki. Turning to `C[N+](C)(C)Cc1cn(Cc2cccc(O)c2)c2ccccc12`, the pKi in assay [3] was 5.80; in assay [4] it was 6.22; in assay [5], 3.95; in assay [6], 3.84. In addition, the pIC50 in assay [1] was 6.00; in assay [2], 4.83. The Ratio IC50 in the assay filed under Homo sapiens was found to be 14.7.

Consider `COc1ccc(Cn2cc(C[N+](C)(C)C)c3ccccc32)cc1O`, for which the pIC50 was 5.47 in assay [1] and 5.02 in assay [2]. The Ratio IC50 in the assay filed under Homo sapiens was determined as 2.8.

For `C[N+](C)(C)Cc1cn(Cc2ccc3c(c2)OCO3)c2ccccc12`, the pIC50 in assay [1] is 5.89; in assay [2], 5.41. Moreover, the Ratio IC50 in the assay filed under Homo sapiens is 3.

Consider `C[N+](C)(C)Cc1cn(Cc2ccc(O)cc2)c2ccccc12`, for which the results for the pKi in assay [3] and in assay [4] were 6.22 and 5.54, respectively. The results for the pIC50 in assay [1] and in assay [2] were 5.66 and 4.60, respectively. In addition, the Ratio IC50 in the assay listed under Homo sapiens was 11.3.

Take `C[n+]1cccc(Cn2cc(C[N+](C)(C)C)c3ccccc32)c1`: the figures for the pIC50 in assay [1] and in assay [2] were 4.38 and under 4.00, respectively.

`COc1cc(Cn2cc(C[N+](C)(C)C)c3ccccc32)ccc1O`: the negative logarithm of the IC50 (pIC50) in assay [1] was 5.66; in assay [2] it was 5.04. Besides, in the assay filed under Homo sapiens, the Ratio IC50 was 4.1.

With `COc1ccc(Cn2cc(C[N+](C)(C)C)c3ccccc32)cc1`, the pIC50 was 5.70 in assay [1] and 5.36 in assay [2]. In addition, the Ratio IC50 in the assay listed under Homo sapiens came to 2.2.

`COc1ccc(Cn2cc(C[N+](C)(C)C)c3ccccc32)cc1OC`: the pIC50 in assay [1] is 5.66; in assay [2] it was 4.83. The Ratio IC50 in the assay listed under Homo sapiens worked out at 6.7.

Regarding `C[N+](C)(C)Cc1cn(Cc2ccc([N+](C)(C)C)cc2)c2ccccc12`, the pIC50 in assay [1] was 5.57; in assay [2], 4.70. In addition, the Ratio IC50 in the assay listed under Homo sapiens was determined as 7.4.
